# Experimental data taken from patent US9388250B2, “Method to treat psoriasis and other hyperproliferative skin disorders” (CORNELL UNIVERSITY, priority 2009, dated 2016).
# Columns and labels:
# keratinocytes in culture = assay: IL-22-induced rise in cAMP within keratinocytes in culture; format: cell-based; conditions: IL-22 stimulated
# Text: To address the role of sAC in keratinocyte proliferation we studied IL-22-induced psoriasis pathogenesis as a model system. IL-22 induced a rise in cAMP within keratinocytes in culture. This cAMP rise was inhibited by KH7 (a specific inhibitor of sAC).
# C57B1/6 mouse ears [1] = assay: IL-22-induced acanthosis in mouse ears, topical application of KH7; format: in vivo; conditions: ear painted with 100 micromolar KH7 in DMSO one hour after IL-22 injection, every other day for two weeks, three mice, ANOVA P<0.05 IL-22 vs IL-22+KH7, not different from control
# Procedure: FIG. 11. Topical application of KH7 inhibits IL-22-induced acanthosis As before C57B1/6 mouse ears were injected with normal saline (control) or 500 ng of IL-22 in 20 microliters of normal saline (IL-22). After incubation for one hour the left ear was painted with 5 microliters of DMSO and the right ear was painted with 100 micromolar KH7 in DMSO (IL-22+KH7). This was repeated every other day for two weeks. The ears were then removed and the total area of acanthosis of each ear was calculated and represented as a % of acanthosis relative to control ears. […]
# IL-22 protein was purchased from Preprotech and reconstituted in sterile water as per the manufacturer's instructions. […] Epidermal height was measured from the bottom of the basal cell layer to the top of the granular cell layer using a microscope and a micrometer. Three to four measurements were taken along the ear and multiple sections were measured for each condition. In addition, the total number of acanthotic ear sections were recorded as an indication of the distribution of acanthosis.
# Topical application of KH7 inhibits IL-22-induced acanthosis. […] The ears were then removed and the total area of acanthosis of each ear was calculated and represented as a % of acanthosis relative to control ears. […]
# C57B1/6 mouse ears [2] = assay: IL-22-induced acanthosis in mouse ears, subcutaneous co-injection of IL-22+KH7; format: in vivo
# Procedure: FIG. 1 Tissue sections stained with H/E of C57B1/6 mouse ears following injection with saline, IL-22 and IL-22+KH7 (a sAc inhibitor). Slides were visualized on a standard pathology microscope. Bar graph in lower right corner represents the average±SEM thickness of epidermis in each of three conditions listed in the previous sentence. a student t test was performed with p value listed.
# IL-22 protein was purchased from Preprotech and reconstituted in sterile water as per the manufacturer's instructions. Concentrated IL-22 was diluted to a working concentration of 500 ng/20 μL in sterile saline alone, or with KH7 at 100 μM. These solutions were prepared fresh each day they were used. C57B1/6 mice greater than 2 months in age, kept under a normal light/dark cycle, and fed normal chow were injected subcutaneously in their left ear with 20 μL of IL-22 alone and in their right ear with 20 μL of IL-22+KH7 every other day for two weeks, or were injected subcutaneously in their left and right ear with 20 μL of IL-22 and then treated topically (54) following each injection with vehicle on the left ear and KH7 on the right ear every other day for two weeks. As a control C57B1/6 mice were injected with 20 μL of IL-22 in their left ear and 20 μL of sterile saline alone in their right ear every other day for two weeks. After two weeks the ears were removed, formalin fixed, paraffin embedded, sectioned, and stained with simple hematoxylin and eosin. Epidermal height was measured from the bottom of the basal cell layer to the top of the granular cell layer using a microscope and a micrometer. Three to four measurements were taken along the ear and multiple sections were measured for each condition. In addition, the total number of acanthotic ear sections were recorded as an indication of the distribution of acanthosis.
structure (smiles),measurement,setting,value
CC(Sc1nc2ccccc2[nH]1)C(=O)N/N=C/c1cc(Br)ccc1O (centres unmarked) [KH7],IL-22-induced cAMP rise within keratinocytes,keratinocytes in culture,inhibited
same,"IL-22-induced acanthosis (total area of acanthosis, % relative to control ears)",C57B1/6 mouse ears [1],inhibits
same,IL-22-induced acanthosis (thickness of epidermis),"C57B1/6 mouse ears [2]; IL-22 500 ng/20 μL with KH7 at 100 μM, every other day for two weeks",completely blocked
same,IL-22-induced parakeratosis,"C57B1/6 mouse ears [2]; IL-22 with KH7, every other day for two weeks",completely blocked
same,IL-22-induced recruitment of immunocytes (ie T cells),"C57B1/6 mouse ears [2]; injection of IL-22+KH7, H/E sections",completely blocked
